# Target: T1, HDAC6 enzyme (Homo sapiens, UniProt Q9UBN7)
# T1 construct: prepared by transducing full length HDAC6 gene into Sf-9 insect cells; GST; purchased SignalChem; host or cells: Sf-9 insect cells
# T1 sequence (Q9UBN7 1-1215): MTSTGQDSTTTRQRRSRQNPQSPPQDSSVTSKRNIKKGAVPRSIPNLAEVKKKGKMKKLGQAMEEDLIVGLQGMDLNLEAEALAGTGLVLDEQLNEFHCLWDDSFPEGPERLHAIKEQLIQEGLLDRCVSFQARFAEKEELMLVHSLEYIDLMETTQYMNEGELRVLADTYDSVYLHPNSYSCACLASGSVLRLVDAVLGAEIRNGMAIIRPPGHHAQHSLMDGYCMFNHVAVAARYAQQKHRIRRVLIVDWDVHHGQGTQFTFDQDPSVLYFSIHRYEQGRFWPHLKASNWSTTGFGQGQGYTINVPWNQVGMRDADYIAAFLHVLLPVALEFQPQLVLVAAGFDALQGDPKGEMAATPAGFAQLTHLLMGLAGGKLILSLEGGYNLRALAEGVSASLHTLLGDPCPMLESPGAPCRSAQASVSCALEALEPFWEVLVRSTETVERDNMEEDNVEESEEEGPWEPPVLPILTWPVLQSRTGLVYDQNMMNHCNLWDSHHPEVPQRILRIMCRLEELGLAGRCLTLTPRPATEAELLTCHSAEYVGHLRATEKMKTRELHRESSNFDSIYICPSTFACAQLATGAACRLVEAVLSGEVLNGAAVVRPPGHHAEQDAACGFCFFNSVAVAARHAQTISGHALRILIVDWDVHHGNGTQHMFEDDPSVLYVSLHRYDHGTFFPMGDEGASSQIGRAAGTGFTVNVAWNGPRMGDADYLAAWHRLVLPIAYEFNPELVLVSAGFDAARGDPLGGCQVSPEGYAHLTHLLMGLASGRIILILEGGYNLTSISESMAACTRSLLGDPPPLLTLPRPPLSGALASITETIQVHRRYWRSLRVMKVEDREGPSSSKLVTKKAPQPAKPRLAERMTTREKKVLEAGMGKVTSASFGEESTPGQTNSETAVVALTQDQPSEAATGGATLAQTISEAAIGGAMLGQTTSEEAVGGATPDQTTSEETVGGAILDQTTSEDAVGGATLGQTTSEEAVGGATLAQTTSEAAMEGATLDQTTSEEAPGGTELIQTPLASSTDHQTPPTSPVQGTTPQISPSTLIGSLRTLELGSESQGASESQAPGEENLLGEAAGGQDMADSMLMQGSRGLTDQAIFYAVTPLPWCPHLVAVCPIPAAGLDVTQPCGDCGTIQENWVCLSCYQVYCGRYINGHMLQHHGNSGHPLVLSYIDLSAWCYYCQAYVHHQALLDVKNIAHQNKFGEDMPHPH
# Assay: HDAC6 enzyme inhibitory assay (HDAC-Glo I/II Assay kit, luminescence)
# Assay type: biochemical
# Conditions: 10 μM test compound; wells without enzyme = 100% inhibition; read-out: HDAC6 inhibitory rate (%) (10 μM)
# Outline: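 Full-length human HDAC6, GST-purified from Sf-9 cells, was preincubated with compound for 60 min at room temperature in Tris-HCl pH 7.5 buffer with glutathione and Tween-20. Substrate-developer was then added, and luminescence was read after 20 min at room temperature. Inhibition was expressed relative to no-enzyme wells, taken as 100% inhibition.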
row,inhibition at 10 µM,SMILES
1,75%,"C[C@@]1(c2ccc(F)cc2)Cc2ncc(-c3nnc(C(F)F)o3)cc2C(=O)N1CC(F)F [Example 54b, (7S)-6-(2,2-difluoroethyl)-3-[5-(difluoromethyl)-1,3,4-oxadiazol-2-yl]-7-(4-fluorophenyl)-7-methyl-7,8-dihydro-1,6-naphthyridin-5(6H)-one]"
2,97%,"CN(C)c1ccc(CN(C)N2Cc3ccc(-c4nnc(C(F)F)o4)cc3C2=O)cc1 [Example 54c, 6-[5-(difluoromethyl)-1,3,4-oxadiazol-2-yl]-2-[{[4-(dimethylamino)phenyl]methyl} (methyl)amino]-2,3-dihydro-1H-isoindol-1-one]"
3,97%,"Cc1nc(Cn2ccnc2-c2cc(F)cc(-c3nnc(C(F)F)o3)c2)no1 [Example 55a, 3-[(2-{3-[5-(difluoromethyl)-1,3,4-oxadiazol-2-yl]-5-fluorophenyl}-1H-imidazol-1-yl)methyl]-5-methyl-1,2,4-oxadiazole]"
4,100%,"C[C@]1(c2ccc(F)cc2)Cc2ncc(-c3nnc(C(F)F)o3)cc2C(=O)N1CC(F)F [Example 55b, (7R)-6-(2,2-difluoroethyl)-3-[5-(difluoromethyl)-1,3,4-oxadiazol-2-yl]-7-(4-fluorophenyl)-7-methyl-7,8-dihydro-1,6-naphthyridin-5(6H)-one]"
5,101%,"COCCOc1ccc(CN(C)N2Cc3ccc(-c4nnc(C(F)F)o4)cc3C2=O)cc1 [Example 55c, 6-[5-(difluoromethyl)-1,3,4-oxadiazol-2-yl]-2-[{[4-(2-methoxyethoxy)phenyl]methyl} (methyl)amino]-2,3-dihydro-1H-isoindol-1-one]"
6,99%,"Cc1noc(Cn2ccnc2-c2cc(F)cc(-c3nnc(C(F)F)o3)c2)n1 [Example 56a, 5-[(2-{3-[5-(difluoromethyl)-1,3,4-oxadiazol-2-yl]-5-fluorophenyl}-1H-imidazol-1-yl)methyl]-3-methyl-1,2,4-oxadiazole]"
7,100%,"CC1(c2ccc(F)cc2)Oc2ccc(-c3nnc(C(F)F)o3)cc2C(=O)N1CC(F)F (stereo not shown) [Example 56b, 3-(2,2-difluoroethyl)-6-[5-(difluoromethyl)-1,3,4-oxadiazol-2-yl]-2-(4-fluorophenyl)-2-methyl-2,3-dihydro-4H-1,3-benzoxazin-4-one]"
8,99%,"CN(Cc1cccc(C(F)F)c1)N1Cc2ccc(-c3nnc(C(F)F)o3)cc2C1=O [Example 56c, 6-[5-(difluoromethyl)-1,3,4-oxadiazol-2-yl]-2-[{[3-(difluoromethyl)phenyl]methyl} (methyl)amino]-2,3-dihydro-1H-isoindol-1-one]"
9,97%,"Cc1nc(Cn2ccnc2-c2cc(F)cc(-c3nnc(C(F)F)o3)c2)co1 [Example 57a, 2-(difluoromethyl)-5-(3-fluoro-5-{1-[(2-methyl-1,3-oxazol-4-yl)methyl]-1H-imidazol-2-yl}phenyl)-1,3,4-oxadiazole]"
10,99%,"CN(Cc1ccc(C(F)F)cc1)N1Cc2ccc(-c3nnc(C(F)F)o3)cc2C1=O [Example 57c, 6-[5-(difluoromethyl)-1,3,4-oxadiazol-2-yl]-2-[{[4-(difluoromethyl)phenyl]methyl} (methyl)amino]-2,3-dihydro-1H-isoindol-1-one]"
11,98%,"COc1cncc(Cn2ccnc2-c2cc(F)cc(-c3nnc(C(F)F)o3)c2)n1 [Example 58a, 2-[(2-{3-[5-(difluoromethyl)-1,3,4-oxadiazol-2-yl]-5-fluorophenyl}-1H-imidazol-1-yl)methyl]-6-methoxypyrazine]"
12,100%,"CN(Cc1ccccc1N1CCOCC1)N1Cc2ccc(-c3nnc(C(F)F)o3)cc2C1=O [Example 58c, 6-[5-(difluoromethyl)-1,3,4-oxadiazol-2-yl]-2-(methyl{[2-(morpholin-4-yl)phenyl]methyl}amino)-2,3-dihydro-1H-isoindol-1-one]"
13,99%,"Cn1cc(Cn2ccnc2-c2cc(F)cc(-c3nnc(C(F)F)o3)c2)cn1 [Example 59a, 2-(difluoromethyl)-5-(3-fluoro-5-{1-[(1-methyl-1H-pyrazol-4-yl)methyl]-1H-imidazol-2-yl}phenyl)-1,3,4-oxadiazole]"
14,101%,"CN(Cc1ccccc1Oc1cnccn1)N1Cc2ccc(-c3nnc(C(F)F)o3)cc2C1=O [Example 59c, 6-[5-(difluoromethyl)-1,3,4-oxadiazol-2-yl]-2-[methyl({2-[(pyrazin-2-yl)oxy]phenyl}methyl)amino]-2,3-dihydro-1H-isoindol-1-one]"
15,98%,"Fc1cc(-c2nnc(C(F)F)o2)cc(-c2nccn2Cc2cscn2)c1 [Example 60a, 2-(difluoromethyl)-5-(3-fluoro-5-{1-[(1,3-thiazol-4-yl)methyl]-1H-imidazol-2-yl}phenyl)-1,3,4-oxadiazole]"
16,101%,"CN(Cc1cncc(Cl)c1)N1Cc2ccc(-c3nnc(C(F)F)o3)cc2C1=O [Example 60c, 2-{[(5-chloropyridin-3-yl)methyl] (methyl)amino}-6-[5-(difluoromethyl)-1,3,4-oxadiazol-2-yl]-2,3-dihydro-1H-isoindol-1-one]"
17,98%,"Cc1cc(Cn2ccnc2-c2cc(F)cc(-c3nnc(C(F)F)o3)c2)no1 [Example 61a, 2-(difluoromethyl)-5-(3-fluoro-5-{1-[(5-methyl-1,2-oxazol-3-yl)methyl]-1H-imidazol-2-yl}phenyl)-1,3,4-oxadiazole]"
18,99%,"CN(Cc1cccc(N2CCOCC2)c1)N1Cc2ccc(-c3nnc(C(F)F)o3)cc2C1=O [Example 61c, 6-[5-(difluoromethyl)-1,3,4-oxadiazol-2-yl]-2-(methyl{[3-(morpholin-4-yl)phenyl]methyl}amino)-2,3-dihydro-1H-isoindol-1-one]"
19,99%,"Cc1cc(Cn2ccnc2-c2cc(F)cc(-c3nnc(C(F)F)o3)c2)on1 [Example 62a, 2-(difluoromethyl)-5-(3-fluoro-5-{1-[(3-methyl-1,2-oxazol-5-yl)methyl]-1H-imidazol-2-yl}phenyl)-1,3,4-oxadiazole]"
20,100%,"CN(CC1CCC(F)(F)CC1)N1Cc2ccc(-c3nnc(C(F)F)o3)cc2C1=O [Example 62c, 2-{[(4,4-difluorocyclohexyl)methyl](methyl)amino}-6-[5-(difluoromethyl)-1,3,4-oxadiazol-2-yl]-2,3-dihydro-1H-isoindol-1-one]"
21,97%,"Cc1nn(C)cc1Cn1ccnc1-c1cc(F)cc(-c2nnc(C(F)F)o2)c1 [Example 63a, 2-(difluoromethyl)-5-(3-{1-[(1,3-dimethyl-1H-pyrazol-4-yl)methyl]-1H-imidazol-2-yl}-5-fluorophenyl)-1,3,4-oxadiazole]"
22,101%,"COc1cc(CN(C)N2Cc3ccc(-c4nnc(C(F)F)o4)cc3C2=O)cc(OC)c1 [Example 63c, 6-[5-(difluoromethyl)-1,3,4-oxadiazol-2-yl]-2-{[(3,5-dimethoxyphenyl)methyl](methyl)amino}-2,3-dihydro-1H-isoindol-1-one]"
23,98%,"Cc1cc(Cn2ccnc2-c2cc(F)cc(-c3nnc(C(F)F)o3)c2)n(C)n1 [Example 64a, 2-(difluoromethyl)-5-(3-{1-[(1,3-dimethyl-1H-pyrazol-5-yl)methyl]-1H-imidazol-2-yl}-5-fluorophenyl)-1,3,4-oxadiazole]"
24,99%,"CN(CC1CC(F)(F)C1)N1Cc2ccc(-c3nnc(C(F)F)o3)cc2C1=O [Example 64c, 2-{[(3,3-difluorocyclobutyl)methyl] (methyl)amino}-6-[5-(difluoromethyl)-1,3,4-oxadiazol-2-yl]-2,3-dihydro-1H-isoindol-1-one]"
25,100%,"Cc1nc(Cn2ccnc2-c2cc(F)cc(-c3nnc(C(F)F)o3)c2)sc1C [Example 65a, 2-(difluoromethyl)-5-(3-{1-[(4,5-dimethyl-1,3-thiazol-2-yl)methyl]-1H-imidazol-2-yl}-5-fluorophenyl)-1,3,4-oxadiazole]"

# From patent US12084436B2, “Heterocyclic compound” (Takeda Pharmaceutical Company Limited, priority 2019, dated 2024)
